Consider 17 molecules from patent US20160046618A1, “Cyclopropyl Fused Thiazin-2-Amine Compounds as Beta-Secretase Inhibitors and Methods of Use” (AMGEN INC., priority 2014, published 2016).

Where only a bound is given, the exact number is not on record here.

In assay [1] the target is human recombinant BACE1 (Homo sapiens (Human), UniProt P56817). Kind of assay: In vitro enzymatic BACE1 FRET assay. Format: biochemical. As to conditions: read-out: IC50 IP (μM) BACE1 enzyme. The essentials: (§1)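 Tris addition raises the pH to neutral to stop the reaction before fluorescence is measured at 590 nm emission with 488 nm excitation.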
Sequence of human recombinant BACE1 (P56817 46-501): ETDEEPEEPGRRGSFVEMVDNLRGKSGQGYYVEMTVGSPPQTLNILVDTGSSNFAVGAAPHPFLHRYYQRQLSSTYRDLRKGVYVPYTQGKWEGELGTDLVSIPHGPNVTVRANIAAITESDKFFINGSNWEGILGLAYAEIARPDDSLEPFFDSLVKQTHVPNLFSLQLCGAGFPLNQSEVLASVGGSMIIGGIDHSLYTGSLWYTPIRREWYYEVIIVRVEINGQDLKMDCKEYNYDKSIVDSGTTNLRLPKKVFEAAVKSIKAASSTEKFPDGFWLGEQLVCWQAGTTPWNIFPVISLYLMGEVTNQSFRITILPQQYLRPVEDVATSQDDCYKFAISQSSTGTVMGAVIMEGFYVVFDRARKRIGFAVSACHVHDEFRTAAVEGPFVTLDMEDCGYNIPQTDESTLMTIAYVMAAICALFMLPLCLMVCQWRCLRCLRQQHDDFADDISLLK
For assay [2], the target named is human recombinant BACE2 (Homo sapiens (Human), UniProt Q9Y5Z0). Nature of the assay: In vitro enzymatic BACE2 FRET assay. Format: biochemical. Conditions: read-out: IC50 IP (μM) BACE2 enzyme. The essentials:
as §1

In assay [3] the test system is Aβ40 in conditioned medium of cells stably expressing Amyloid Precursor Protein (APP). Kind of assay: In vitro BACE-1 cell-based assay (Aβ40 sandwich ELISA). As to conditions: read-out: IC50 IP (μM) BACE1 cell. The essentials: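 Read-out: time-resolved fluorescence (Streptavidin-Europium) of Aβ40 captured by pAb40 and detected with biotinylated 6E10 from supernatants of APP-stable cells. Cells were exposed to compound for 24 h, 10-point dose response, top dose 100 μM or 10 μM, 0.1% DMSO. IC50 fitted to percent of control.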

In assay [4] the target is Recombinant Cat D (Homo sapiens (Human), UniProt P07339). Nature of the assay: In vitro enzymatic Cathepsin D (Cat D) FRET assay. Format: biochemical. As to conditions: read-out: IC50 IP (μM) CatD. The gist of the method: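 Recombinant Cat D expressed in CHO cells, assayed in 0.05 M citrate pH 3.5 with 5 mM CHAPS and 10% DMSO final. Reaction started with 20 nM FRET peptide substrate, incubated one hour, then stopped by Tris buffer to neutral pH; fluorescence read at ex 500/em 580 nm.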
Sequence of Recombinant Cat D (P07339 65-412): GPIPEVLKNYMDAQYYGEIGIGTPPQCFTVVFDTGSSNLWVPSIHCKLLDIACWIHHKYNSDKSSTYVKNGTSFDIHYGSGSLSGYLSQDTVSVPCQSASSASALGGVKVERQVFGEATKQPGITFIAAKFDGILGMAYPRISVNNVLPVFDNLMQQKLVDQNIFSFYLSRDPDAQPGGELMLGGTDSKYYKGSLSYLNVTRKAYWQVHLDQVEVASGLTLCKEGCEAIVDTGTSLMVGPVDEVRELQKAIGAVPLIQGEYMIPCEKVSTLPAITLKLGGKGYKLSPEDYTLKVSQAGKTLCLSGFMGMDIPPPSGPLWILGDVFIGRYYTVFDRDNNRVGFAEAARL

Sequence of human recombinant BACE2 (Q9Y5Z0 63-518): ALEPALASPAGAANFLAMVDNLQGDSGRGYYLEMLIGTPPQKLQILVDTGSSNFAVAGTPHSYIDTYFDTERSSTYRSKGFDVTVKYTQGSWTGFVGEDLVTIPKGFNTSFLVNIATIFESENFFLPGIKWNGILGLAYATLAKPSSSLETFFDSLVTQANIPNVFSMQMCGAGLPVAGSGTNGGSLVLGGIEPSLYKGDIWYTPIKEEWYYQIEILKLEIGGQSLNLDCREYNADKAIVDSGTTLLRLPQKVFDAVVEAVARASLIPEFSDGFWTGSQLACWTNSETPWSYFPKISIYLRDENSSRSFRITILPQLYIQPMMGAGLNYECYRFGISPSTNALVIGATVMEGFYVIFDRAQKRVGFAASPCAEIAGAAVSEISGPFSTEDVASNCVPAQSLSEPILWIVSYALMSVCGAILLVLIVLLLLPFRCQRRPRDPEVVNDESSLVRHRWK

In the case of `C#CCOc1cnc2c(Nc3cc(F)c(F)c([C@@]4(C)N=C(N)S[C@@]5(C(N)=O)C[C@H]54)c3)ncnc2c1` [Example 917, (1S,5S,6S)-3-amino-5-(2,3-difluoro-5-((7-(2-propyn-1-yloxy)pyrido[3,2-d]pyrimidin-4-yl)amino)phenyl)-5-methyl-2-thia-4-azabicyclo[4.1.0]hept-3-ene-1-carboxamide], the IC50 was 0.000633 µM in assay [1], 0.0355 µM in assay [2], 0.000857 µM in assay [3] and 373 µM in assay [4].
For the molecule `C[C@]1(c2cc(Nc3ncnc4cc(OCc5ncco5)cnc34)cc(F)c2F)N=C(N)S[C@@]2(C(N)=O)C[C@H]21` [Example 918, (1S,5S,6S)-3-amino-5-(2,3-difluoro-5-((7-(1,3-oxazol-2-ylmethoxy)pyrido[3,2-d]pyrimidin-4-yl)amino)phenyl)-5-methyl-2-thia-4-azabicyclo[4.1.0]hept-3-ene-1-carboxamide], the half-inhibitory concentration (IC50) in assay [1] is 0.000861 µM; in assay [2] it was 0.0389 µM; in assay [3], 0.000733 µM; in assay [4], 86.9 µM.
As for `C#CCOc1cnc(C(=O)Nc2cc(F)c(F)c([C@@]3(C)N=C(N)S[C@@]4(C(N)=O)C[C@H]43)c2)cn1` [Example 919, (1S,5S,6S)-3-amino-5-(2,3-difluoro-5-(((5-(2-propyn-1-yloxy)-2-pyrazinyl)carbonyl)amino)phenyl)-5-methyl-2-thia-4-azabicyclo[4.1.0]hept-3-ene-1-carboxamide], the IC50 in assay [1] was 0.000199 µM; in assay [2], 0.00428 µM; in assay [3], 0.000298 µM; in assay [4] it was 21.2 µM.
Regarding `CC#CCOc1cnc2c(Nc3cc(F)c(F)c([C@@]4(C)N=C(N)S[C@@]5(C(N)=O)C[C@H]54)c3)nccc2n1` [Example 920, (1S,5S,6S)-3-amino-5-(5-((2-(2-butyn-1-yloxy)pyrido[3,4-b]pyrazin-5-yl)amino)-2,3-difluorophenyl)-5-methyl-2-thia-4-azabicyclo[4.1.0]hept-3-ene-1-carboxamide], the IC50 in assay [1] was found to be 0.000201 µM; in assay [2] it was 0.00604 µM; in assay [3], 0.000644 µM; in assay [4] it was 1080 µM.
As for `CN(C)C(=O)[C@]12C[C@H]1[C@@](C)(c1cc(NC(=O)c3cnc(OCC(F)(F)C(F)F)cn3)cc(F)c1F)N=C(N)S2` [Example 922, (1S,5S,6S)-3-amino-5-(2,3-difluoro-5-(((5-(2,2,3,3-tetrafluoropropoxy)-2-pyrazinyl)carbonyl)amino)phenyl)-N,N,5-trimethyl-2-thia-4-azabicyclo[4.1.0]hept-3-ene-1-carboxamide], the IC50 worked out at 0.00155 µM in assay [1], 0.00839 µM in assay [2], 0.00155 µM in assay [3] and 1090 µM in assay [4].
`CN(C)C(=O)[C@]12C[C@H]1[C@@](C)(c1cc(Nc3ncnc4cc(OCc5ncco5)cnc34)cc(F)c1F)N=C(N)S2` [Example 923, (1S,5S,6S)-3-amino-5-(2,3-difluoro-5-((7-(1,3-oxazol-2-ylmethoxy)pyrido[3,2-d]pyrimidin-4-yl)amino)phenyl)-N,N,5-trimethyl-2-thia-4-azabicyclo[4.1.0]hept-3-ene-1-carboxamide]: the IC50 in assay [1] was 0.000863 µM; in assay [2], 0.00253 µM; in assay [3], 0.000338 µM; in assay [4], 121 µM.
In the case of `C#C[C@H](C)Oc1cnc2c(Nc3cc(F)c(F)c([C@@]4(C)N=C(N)S[C@@]5(C(=O)N(C)C)C[C@H]54)c3)nccc2n1` [Example 925, (1S,5S,6S)-3-amino-5-(2,3-difluoro-5-((2-(((1S)-1-methyl-2-propyn-1-yl)oxy)pyrido[3,4-b]pyrazin-5-yl)amino)phenyl)-N,N,5-trimethyl-2-thia-4-azabicyclo[4.1.0]hept-3-ene-1-carboxamide], the IC50 is 0.0014 µM in assay [1], 0.00387 µM in assay [2], 0.00308 µM in assay [3] and > 400 µM in assay [4].
For the molecule `CN(C)C(=O)[C@]12C[C@H]1[C@@](C)(c1cc(NC(=O)c3cnc(OCC(F)(F)F)cn3)cc(F)c1F)N=C(N)S2` [Example 926, (1S,5S,6S)-3-amino-5-(2,3-difluoro-5-(((5-(2,2,2-trifluoroethoxy)-2-pyrazinyl)carbonyl)amino)phenyl)-N,N,5-trimethyl-2-thia-4-azabicyclo[4.1.0]hept-3-ene-1-carboxamide], the IC50 in assay [1] was found to be 0.0021 µM; in assay [2], 0.00491 µM; in assay [3] it was 0.00113 µM; in assay [4] it was 695 µM.
Take `C#CCOc1cnc(C(=O)Nc2ccc(F)c([C@@]3(C)N=C(N)S[C@@]4(C#N)C[C@H]43)c2)cn1` [Example 927, N-(3-((1S,5S,6S)-3-amino-1-cyano-5-methyl-2-thia-4-azabicyclo[4.1.0]hept-3-en-5-yl)-4-fluorophenyl)-5-(2-propyn-1-yloxy)-2-pyrazinecarboxamide]: the IC50 was 0.000266 µM in assay [1], 0.00448 µM in assay [2], 0.000667 µM in assay [3] and 126 µM in assay [4].
Turning to `C#CCOc1cnc2c(Nc3ccc(F)c([C@@]4(C)N=C(N)S[C@@]5(C#N)C[C@H]54)c3)ncnc2c1` [Example 928, (1S,5S,6S)-3-amino-5-(2-fluoro-5-((7-(2-propyn-1-yloxy)pyrido[3,2-d]pyrimidin-4-yl)amino)phenyl)-5-methyl-2-thia-4-azabicyclo[4.1.0]hept-3-ene-1-carbonitrile], the IC50 in assay [1] came to 0.00141 µM; in assay [2] it was 0.0129 µM; in assay [3], 0.00723 µM; in assay [4] it was 439 µM.
`C[C@]1(c2cc(NC(=O)c3ccc(Cl)cn3)ccc2F)N=C(N)S[C@@]2(C#N)C[C@H]21` [Example 929, N-(3-((1S,5S,6S)-3-amino-1-cyano-5-methyl-2-thia-4-azabicyclo[4.1.0]hept-3-en-5-yl)-4-fluorophenyl)-5-chloro 2-pyridinecarboxamide]: the IC50 is 0.000567 µM in assay [1], < 0.00203 µM in assay [2], 0.00363 µM in assay [3] and > 400 µM in assay [4].
With `C#CCOc1cnc2c(Nc3cc(F)c(F)c([C@@]4(C)N=C(N)S[C@@]5(C(=O)N6CCCC6)C[C@H]54)c3)ncnc2c1` [Example 933, N-(3-((1S,5S,6S)-3-amino-5-methyl-1-(1-pyrrolidinylcarbonyl)-2-thia-4-azabicyclo[4.1.0]hept-3-en-5-yl)-4,5-difluorophenyl)-7-(2-propyn-1-yloxy)pyrido[3,2-d]pyrimidin-4-amine], the IC50 in assay [1] was found to be 0.000526 µM; in assay [2] it was 0.00491 µM; in assay [3] it was 0.000709 µM; in assay [4], 315 µM.
For the molecule `C#CCOc1cnc(C(=O)Nc2cc(F)c(F)c([C@@]3(C)N=C(N)S[C@@]4(C(=O)N5CCCC5)C[C@H]43)c2)cn1` [Example 934, N-(3-((1S,5S,6S)-3-amino-5-methyl-1-(1-pyrrolidinylcarbonyl)-2-thia-4-azabicyclo[4.1.0]hept-3-en-5-yl)-4,5-difluorophenyl)-5-(2-propyn-1-yloxy)-2-pyrazinecarboxamide], the IC50 in assay [1] is 0.000393 µM; in assay [2], < 0.00203 µM; in assay [3] it was 0.000378 µM; in assay [4] it was 12.9 µM.
For `C[C@]1(c2cc(NC(=O)c3ccc(Cl)cn3)cc(F)c2F)N=C(N)S[C@@]2(C(=O)N3CCCC3)C[C@H]21` [Example 935, N-(3-((1S,5S,6S)-3-amino-5-methyl-1-(1-pyrrolidinylcarbonyl)-2-thia-4-azabicyclo[4.1.0]hept-3-en-5-yl)-4,5-difluorophenyl)-5-chloro-2-pyridinecarboxamide], in that order: 0.000498 µM, < 0.00203 µM, 0.000889 µM and 254 µM.
As for `C[C@]1(c2cc(Nc3ncnc4cc(OCc5ncco5)cnc34)cc(F)c2F)N=C(N)S[C@@]2(C(=O)N3CCCC3)C[C@H]21` [Example 936, N-(3-((1S,5S,6S)-3-amino-5-methyl-1-(1-pyrrolidinylcarbonyl)-2-thia-4-azabicyclo[4.1.0]hept-3-en-5-yl)-4,5-difluorophenyl)-7-(1,3-oxazol-2-ylmethoxy)pyrido[3,2-d]pyrimidin-4-amine], the 50% inhibitory concentration (IC50) worked out at 0.00385 µM in assay [1], 0.0182 µM in assay [2], 0.000847 µM in assay [3] and 115 µM in assay [4].
For the molecule `C#C[C@H](C)Oc1cnc2c(Nc3cc(F)c(F)c([C@@]4(C)N=C(N)S[C@@]5(C(=O)N6CCCC6)C[C@H]54)c3)nccc2n1` [Example 937, N-(3-((1S,5S,6S)-3-amino-5-methyl-1-(1-pyrrolidinylcarbonyl)-2-thia-4-azabicyclo[4.1.0]hept-3-en-5-yl)-4,5-difluorophenyl)-2-(((1S)-1-methyl-2-propyn-1-yl)oxy)pyrido[3,4-b]pyrazin-5-amine], the IC50 in assay [1] was 0.00207 µM; in assay [2], 0.0102 µM; in assay [3] it was 0.00624 µM; in assay [4], 872 µM.
Regarding `C[C@H](Oc1cnc2c(Nc3cc(F)c(F)c([C@@]4(C)N=C(N)S[C@@]5(C(=O)N6CCCC6)C[C@H]54)c3)nccc2n1)c1ncco1` [Example 938, N-(3-((1S,5S,6S)-3-amino-5-methyl-1-(1-pyrrolidinylcarbonyl)-2-thia-4-azabicyclo[4.1.0]hept-3-en-5-yl)-4,5-difluorophenyl)-2-((1S)-1-(1,3-oxazol-2-yl)ethoxy)pyrido[3,4-b]pyrazin-5-amine], the IC50 in assay [1] amounted to 0.00129 µM; in assay [2], 0.0633 µM; in assay [3] it was 0.00508 µM; in assay [4], 162 µM.

For orientation: IC50 means the concentration that inhibits the measured activity by half.
